# Paper PMC4585962, “A peptide factor secreted by Staphylococcus pseudintermedius exhibits properties of both bacteriocins and virulence factors” (Scientific Reports, 2015)
# No end group written: not given here. *: point of attachment. For = O=C*
# Tests used:
# HSF cells = experiment: Cell membrane integrity, propidium iodide / FDA fluorescence microscopy; assay type: cell-based, human; conditions: media contained 0.5 or 15 μM BacSp222 (concentration of these values not stated), three independent experiments ± SD
# [1] = system: Bacillus subtilis ATCC 6633; experiment: MIC, microdilution assay; assay type: cell-based; conditions: broth microdilution (CLSI), MHB, overnight 37 °C, OD 600 nm; mean of three independent measurements
# Procedure: (§1) The microbicidal activity of BacSp222 was determined using the microdilution method in compliance with Clinical and Laboratory Standards Institute (CLSI, for bacteria) guidelines M7-A7[57] and in compliance with the European Committee on Antimicrobial Susceptibility Testing - Subcommittee on Antifungal Susceptibility Testing (EUCAST-AFST, for fungi)[58]. Briefly, the microorganisms were cultivated in dedicated liquid media to reach the early exponential phase or, in the case of Streptococcus spp., grown overnight on agar MHB supplemented with 2.5% (v/v) lysed horse blood (LHB). Subsequently, the microorganisms were diluted to 1 × 10^6 CFU/ml (estimated using an Eddy Jet 2 automatic spiral plater, IUL) in MHB; in MHB supplemented with 5% (v/v) LHB (for streptococci); or, in the case of Candida albicans, in RPMI-1640 medium (Thermo) without L-Glu and phenol red, supplemented with 0.6 g/l L-Glu, 34.53 g/l 3-(N-morpholino)propanesulphonic acid and 18 g/l glucose, pH 7.0. Fifty microliters of microorganism suspension were mixed with an equal volume of appropriate medium containing serial 2- or 1.5-fold dilutions of BacSp222. After the cultures were incubated overnight at 37 °C, the optical density (OD) at 600 nm was measured. The minimal inhibitory concentration (MIC), calculated as a mean value from three independent measurements, was defined as the minimum peptide concentration for which an increase in OD was not observed compared to uninoculated broth.
# [2] = system: Streptococcus sanguinis PCM 2335; experiment: MIC, microdilution assay; assay type: cell-based; conditions: broth microdilution (CLSI), MHB with 5% lysed horse blood, overnight 37 °C, OD 600 nm; mean of three independent measurements
# Procedure: as §1
# [3] = system: Staphylococcus intermedius R-2725; experiment: MIC, microdilution assay; assay type: cell-based; conditions: broth microdilution (CLSI), MHB, overnight 37 °C, OD 600 nm; mean of three independent measurements
# Procedure: as §1
# [4] = system: Streptococcus pyogenes PCM 465; experiment: MIC, microdilution assay; assay type: cell-based; conditions: broth microdilution (CLSI), MHB with 5% lysed horse blood, overnight 37 °C, OD 600 nm; mean of three independent measurements
# Procedure: as §1
# [5] = system: Staphylococcus aureus MRSA USA300 strain FPR3757; experiment: MIC, microdilution assay; assay type: cell-based; conditions: broth microdilution (CLSI), MHB, overnight 37 °C, OD 600 nm; mean of three independent measurements
# Procedure: as §1
# Escherichia coli K12 = experiment: MIC, microdilution assay; assay type: cell-based; conditions: broth microdilution (CLSI), MHB, overnight 37 °C, OD 600 nm; highest concentration tested 100 μM
# Procedure: as §1
# [6] = system: Serratia marcescens ATCC 274; experiment: MIC, microdilution assay; assay type: cell-based; conditions: broth microdilution (CLSI), MHB, overnight 37 °C, OD 600 nm; highest concentration tested 100 μM
# Procedure: as §1
# [7] = system: Staphylococcus pseudintermedius LMG 22219; experiment: MIC, microdilution assay; assay type: cell-based; conditions: nonproducer strain; broth microdilution (CLSI), MHB, overnight 37 °C, OD 600 nm; mean of three independent measurements
# Procedure: as §1
# [8] = system: Staphylococcus aureus KB/8658; experiment: MIC, microdilution assay; assay type: cell-based; conditions: broth microdilution (CLSI), MHB, overnight 37 °C, OD 600 nm; mean of three independent measurements
# Procedure: as §1
# [9] = system: Staphylococcus saprophyticus ATCC 15305; experiment: MIC, microdilution assay; assay type: cell-based; conditions: broth microdilution (CLSI), MHB, overnight 37 °C, OD 600 nm; mean of three independent measurements
# Procedure: as §1
# [10] = system: Staphylococcus pseudintermedius 222; experiment: MIC, microdilution assay; assay type: cell-based; conditions: bacteriocin-producing strain; broth microdilution (CLSI), MHB, overnight 37 °C, OD 600 nm; mean of three independent measurements
# Procedure: as §1
# [11] = system: Klebsiella pneumoniae ATCC 13886; experiment: MIC, microdilution assay; assay type: cell-based; conditions: broth microdilution (CLSI), MHB, overnight 37 °C, OD 600 nm; highest concentration tested 100 μM
# Procedure: as §1
# [12] = system: Staphylococcus epidermidis ATCC 35547; experiment: MIC, microdilution assay; assay type: cell-based; conditions: broth microdilution (CLSI), MHB, overnight 37 °C, OD 600 nm; mean of three independent measurements
# Procedure: as §1
# [13] = system: Staphylococcus intermedius ATCC 29663; experiment: MIC, microdilution assay; assay type: cell-based; conditions: broth microdilution (CLSI), MHB, overnight 37 °C, OD 600 nm; mean of three independent measurements
# Procedure: as §1
# [14] = system: Micrococcus luteus ATCC 4698; experiment: MIC, microdilution assay; assay type: cell-based; conditions: broth microdilution (CLSI), MHB, overnight 37 °C, OD 600 nm; mean of three independent measurements
# Procedure: as §1
# [15] = system: Staphylococcus aureus ATCC 25923; experiment: MIC, microdilution assay; assay type: cell-based; conditions: broth microdilution (CLSI), MHB, overnight 37 °C, OD 600 nm; mean of three independent measurements
# Procedure: as §1
# [16] = system: Lactococcus lactis subsp. lactis ŁOCK 0871 strain 239; experiment: MIC, microdilution assay; assay type: cell-based; conditions: broth microdilution (CLSI), MHB, overnight 37 °C, OD 600 nm; mean of three independent measurements
# Procedure: as §1
substance,measurement,setting,value
For-MAGLLRFLLSKGRALYNWAKSHVGKVWEWLKSGATYEQIKEWIENALGWR [BacSp222],PI-positive cells,HSF cells; 0.5 hours of incubation,39 ± 13.5%
same,PI-positive cells,HSF cells; 2 hours of incubation,74 ± 6.7%
same,PI-positive cells,HSF cells; 4 hours of incubation,97 ± 3.7%
same,MIC ± SD,[1],0.16 ± 0.00 µM
same,MIC ± SD,[2],3.50 ± 0.85 µM
same,MIC ± SD,[3],1.20 ± 0.24 µM
same,MIC ± SD,[4],7.8 µM
same,MIC ± SD,[5],0.89 ± 0.00 µM
same,MIC ± SD,Escherichia coli K12,>100 µM
same,MIC ± SD,[6],>100 µM
same,MIC ± SD,[7],0.16 µM
same,MIC ± SD,[8],1.30 ± 0.00 µM
same,MIC ± SD,[9],0.93 ± 0.36 µM
same,MIC ± SD,[10],2.1 µM
same,MIC ± SD,[11],>100 µM
same,MIC ± SD,[12],4.40 ± 0.00 µM
same,MIC ± SD,[13],2.00 ± 0.00 µM
same,MIC ± SD,[14],0.11 µM
same,MIC ± SD,[15],1.00 ± 0.36 µM
same,MIC ± SD,[16],0.89 ± 0.00 µM
